# Assay results published in patent US9096560B2, “5-heterocyclylalkyl-3-hydroxy-2-phenylcyclopent-2-enones as herbicides” (Syngenta Limited, priority 2008, dated 2015).
# Experiments:
# Format in all cases: in vivo
# [1] = test system: Lolium perenne (LOLPE); experiment: Example B pre-emergence herbicidal test, LOLPE; conditions: Lolium perenne, 312 h, rate 250 g/ha, evaluated after 13 days, 100=total damage to plant, 0=no damage to plant
# In short: (§1)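 Pots sown, sprayed day 1 pre-emergence; spray: aqueous dilution of formulation in acetone/water 50:50 + 0.5% Tween 20. Glasshouse 24/16° C, 14 h light, 65% RH, watering twice daily. Visual damage rating at 13 d, 0–100 scale.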
# [2] = test system: Alopecurus myosuroides (ALOMY); experiment: Example B post-emergence herbicidal test, ALOMY; conditions: Alopecurus myosuroides, 312 h, rate 250 g/ha, evaluated after 13 days, scale 0-100, read-out: Post-emergence activity ALOMY (100=total damage to plant; 0=no damage to plant)
# In short: (§2)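 Score: 0 = no damage, 100 = total damage, assessed 13 days post-spray. Plants sprayed 8 days after sowing with aqueous dilution of acetone/water (50:50) formulation containing 0.5% Tween 20.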
# [3] = test system: Echinochloa crus-galli (ECHCG); experiment: Example B pre-emergence herbicidal test, ECHCG; conditions: Echinochloa crus-galli, 312 h, rate 250 g/ha, evaluated after 13 days, 100=total damage to plant, 0=no damage to plant
# In short: as §1
# [4] = test system: Alopecurus myosuroides (ALOMY); experiment: Example B pre-emergence herbicidal test, ALOMY; conditions: Alopecurus myosuroides, 312 h, rate 250 g/ha, evaluated after 13 days, 100=total damage to plant, 0=no damage to plant
# In short: as §1
# [5] = test system: Avena fatua (AVEFA); experiment: Example B post-emergence herbicidal test, AVEFA; conditions: Avena fatua, 312 h, rate 250 g/ha, evaluated after 13 days, scale 0-100, read-out: Post-emergence activity AVEFA (100=total damage to plant; 0=no damage to plant)
# In short: as §2
# [6] = test system: Echinochloa crus-galli (ECHCG); experiment: Example B post-emergence herbicidal test, ECHCG; conditions: Echinochloa crus-galli, 312 h, rate 250 g/ha, evaluated after 13 days, scale 0-100, read-out: Post-emergence activity ECHCG (100=total damage to plant; 0=no damage to plant)
# In short: as §2
# [7] = test system: Lolium perenne (LOLPE); experiment: Example B post-emergence herbicidal test, LOLPE; conditions: Lolium perenne, 312 h, rate 250 g/ha, evaluated after 13 days, scale 0-100, read-out: Post-emergence activity LOLPE (100=total damage to plant; 0=no damage to plant)
# In short: as §2
# [8] = test system: Avena fatua (AVEFA); experiment: Example B pre-emergence herbicidal test, AVEFA; conditions: Avena fatua, 312 h, rate 250 g/ha, evaluated after 13 days, 100=total damage to plant, 0=no damage to plant
# In short: as §1
SMILES,pest or weed control at 250 g/ha [1] [%],pest or weed control at 250 g/ha [2] [%],pest or weed control at 250 g/ha [3] [%],pest or weed control at 250 g/ha [4] [%],pest or weed control at 250 g/ha [5] [%],pest or weed control at 250 g/ha [6] [%],pest or weed control at 250 g/ha [7] [%],pest or weed control at 250 g/ha [8] [%]
COCCOC(=O)N1CCC(CC2CC(=O)C(c3c(C)cc(C)cc3C)C2=O)CC1 (stereo not drawn) [Compound T123],60,80,60,60,90,60,70,60
Cc1cc(C)c(C2=C(OC(=O)C(C)(C)C)CC(CCC3CCOCC3)C2=O)c(C)c1 (stereo not drawn) [Compound P34],100,80,100,90,90,60,100,90
Cc1cc(C)c(C2C(=O)CC(CC3CCN(C(=O)c4ccsc4)CC3)C2=O)c(C)c1 (stereo not drawn) [Compound T126],60,50,50,30,70,60,70,40
Cc1cc(C)c(C2C(=O)CC(CC3CCN(C(=O)c4ccco4)C3)C2=O)c(C)c1 (stereo not drawn) [Compound T147],30,60,40,50,70,50,40,10
Cc1cc(C)c(C2=C(OS(=O)(=O)C3CC3)CC(CC3CCOC3)C2=O)c(C)c1 (stereo not drawn) [Compound P28],100,70,20,70,70,60,100,30
Cc1cc(C)c(C2=C(OC(=O)OCC(C)(C)C)CC(CC3CCOC3)C2=O)c(C)c1 (stereo not drawn) [Compound P24],100,90,90,100,90,90,100,90
Cc1cc(C)c(C2C(=O)CC(CC3CCCO3)C2=O)c(C)c1 (stereo not drawn) [Compound T18],100,80,100,100,70,90,100,70
CC(=O)N1CCCCC1CC1CC(=O)C(c2c(C)cc(C)cc2C)C1=O (stereo not drawn) [Compound T48],90,90,100,90,90,100,70,90
CC(=O)OC1=C(c2c(C)cc(C)cc2C)C(=O)/C(=C/C2CCN(C(C)=O)C2)C1 (stereo not drawn) [Compound P42],40,60,30,30,70,70,40,0
Cc1cc(C)c(C2C(=O)C/C(=C\C3CCN(Cc4ccccc4)CC3)C2=O)c(C)c1 (stereo not drawn) [Compound T13],30,10,10,30,0,40,30,0
Cc1cc(C)c(C2C(=O)CC(CC3CCN(C(=O)c4cc(C)on4)CC3)C2=O)c(C)c1 (stereo not drawn) [Compound T119],80,90,100,40,80,90,90,30
Cc1cc(C)c(C2C(=O)CC(CC3CCN(S(=O)(=O)c4ccccc4)CC3)C2=O)c(C)c1 (stereo not drawn) [Compound T91],70,40,60,20,90,50,50,40
Cc1cc(C)c(C2C(=O)CC(CC3CCN(C(=O)C(F)(F)F)CC3)C2=O)c(C)c1 (stereo not drawn) [Compound T163],80,90,60,50,100,90,100,60
CC(C)=CC(=O)N1CCC(CC2CC(=O)C(c3c(C)cc(C)cc3C)C2=O)CC1 (stereo not drawn) [Compound T104],70,70,90,60,90,70,80,60
Cc1cc(C)c(C2=C(OC(=O)C(C)(C)C)CC(CC3CCCOC3)C2=O)c(C)c1 (stereo not drawn) [Compound P37],100,90,70,100,90,90,90,70
Cc1cc(C)c(C2=C(OC(=O)OCC(C)C)CC(CC3CCOC3)C2=O)c(C)c1 (stereo not drawn) [Compound P23],100,90,100,100,90,90,100,80
CON1CCC(CC2CC(=O)C(c3c(C)cc(C)cc3C)C2=O)CC1 (stereo not drawn) [Compound T23],100,90,100,100,100,100,100,100
Cc1cc(C)c(C2=C(OC(=O)OC(C)(C)C)CC(CC3CCN(C(=O)OC(C)(C)C)CC3)C2=O)c(C)c1 (stereo not drawn) [Compound P54],100,70,100,80,50,80,40,70
Cc1cc(C)c(C2C(=O)CC(CC3CCN(C(=O)C(C)(C)C)CC3)C2=O)c(C)c1 (stereo not drawn) [Compound T79],90,60,60,60,80,70,60,20
C=CCOC(=O)N1CCC(CC2CC(=O)C(c3c(C)cc(C)cc3C)C2=O)CC1 (stereo not drawn) [Compound T101],50,40,50,20,40,20,40,30
Cc1cc(C)c(C2C(=O)CC(CC3CCN(C(=O)c4ccc(Cl)cc4Cl)CC3)C2=O)c(C)c1 (stereo not drawn) [Compound T71],30,30,10,20,80,70,40,20
